According to patent US20210079358A1, “ASSEMBLOID - 3D MIMETIC TISSUE STRUCTURE BASED ON PATIENT- DERIVED MULTIPLE CELL TYPES AND METHOD OF MANUFACTURING THE SAME” (POSTECH Research and Business Development Foundation, priority 2019, published 2021):
Entries after “also recorded” stand apart in the source; their conditions may differ.

Legend:
[1] = system: three-layered miniature bladders; assay: Cell proliferation in three-layered miniature bladders under Hh pathway manipulation; type: cell-based, mouse; details: 50 μM Vismodegib or 100 nM SAG vs DMSO, 7 days
Experimental: (§1) To generate normal bladder organoids with stroma, normal bladder organoids cultured for a long time (>6 months) were mixed with mouse embryonic fibroblasts (MEFs) and endothelial cells (HULEC, ATCC) at 3.75×10^4 cells/μL and 5×10^3 cells/μL, respectively, along with 3 to 4 μL of Matrigel. Before additional analysis, these bladder organoids with stroma were cultured in an organoid medium in a spinning bioreactor for 7 days. The 12-well version of the spinning bioreactor was manufactured by 3D printing according to the method described in Qian, X. et al. Brain-Region-Specific Organoids Using Mini-bioreactors for Modeling ZIKV Exposure. Cell 165, 1238-1254, doi:10.1016/j.cell. 2016.04.032 (2016). In brief, individual components such as a plate cover (Project MJP 2500, 3D Systems, USA), a rotating shaft (Single Plus, Cubicon, Korea), a fixed rod (Single Plus, Cubicon, Korea) and a gear (Single Plus, Cubicon, Korea) were printed using a 3D printer in a stackable version, and the components were assembled to manufacture a spinning bioreactor. […]
(§2) Normal bladder organoids were treated with 50 μM Vismodegib (Abmole), 100 nM SAG (Millipore) or DMSO and cultured in a spinning bioreactor for 7 days. […] Capase-3/7-stained cells in the bladder tumor organoids were counted based on green fluorescence signals, and dose-response curves were generated using GraphPad Prism ver.6. […]

[2] = system: reconstituted bladder organoids with stroma; assay: Cell proliferation in reconstituted bladder organoids with stroma under Hh pathway manipulation; type: cell-based, mouse; details: 50 μM Vismodegib or 100 nM SAG vs DMSO, 7 days
Experimental: as §1, §2

[3] = system: 3D bioprinted patient-derived bladder tumor organoids; assay: Tumor cell apoptosis (caspase3) in 3D bioprinted patient-derived bladder tumor organoids treated with cisplatin; type: cell-based, human; details: luminal and basal tumor-derived printed tumor organoids
Experimental: Normal bladder organoids were treated with 50 μM Vismodegib (Abmole), 100 nM SAG (Millipore) or DMSO and cultured in a spinning bioreactor for 7 days. Bladder tumor organoids were treated with 300 nM SAG, 5 μM FK506 (Cayman Chemical) or DMSO, and cultured in a spinning bioreactor for 7 days. Human bladder tumor organoids were cultured in an organoid medium for 7 days in a spinning bioreactor before treatment with chemotherapeutic drugs. Subsequently, tumor organoids were cultured for 48 hours in the presence of cisplatin (0, 0.2, 0.5, 1, 2, 5, 10, 50 and 100 μm, Sigma), gemcitabine (0, 0.2, 0.5, 1, 2, 5, 10, 50 and 100 μM, Sigma) or mitomycin C (0, 0.2, 0.5, 1, 2, 5, 10, 50 and 100 μM, Sigma). To produce dose-response curves for the three chemotherapeutic drugs, cell viability was assayed using a CellEvent™ Caspase-3/7 Green Detection Reagent (Thermo Fisher) according to the manufacturer's instructions. Forty-eight hours after treatment with cell therapeutic agent, bladder tumor organoids were fixed in 4% PFA at 4° C. for 15 minutes, washed with PBS three times, cultured in 30% sucrose overnight, and embedded in an OCT compound. Capase-3/7-stained cells in the bladder tumor organoids were counted based on green fluorescence signals, and dose-response curves were generated using GraphPad Prism ver.6. […]

[4] = system: patient-derived bladder tumor organoids; assay: Growth of patient-derived bladder tumor organoids with or without tumor stroma treated with Hh or Bmp agonist; type: cell-based, human; details: 300 nM SAG, 7 days
Experimental: Tumor tissues obtained from patients were washed with DPBS, and then washed twice with DMEM supplemented with 10% FBS. The washed tumors were minced and incubated in DMEM containing 10% FBS and collagenase I and II (20 mg/mL each) at 37° C. for 1 hour and ground for 5 minutes every 30 minutes. The isolated tissues were spun down at 1,500 rpm for 5 minutes, resuspended in ACK lysis buffer, and then incubated for 5 minutes at room temperature. Dissociated clusters were washed with DMEM containing 10% FBS and filtered through a 100 μm cell strainer. The dissociated cell clusters were spun down, resuspended in Matrigel (Growth Factor reduced) and plated in the middle of one well of a 6-well plate. The plated drop was solidified in an incubator at 37° C. for 15 minutes, and a 2.5 mL organoid medium [advanced DMEM/F-12 supplemented with 10 mM HEPES (pH 7.4), 10 mM nicotinamide, 1 mM N-acetyl-L-cysteine, GlutaMAX, 1% penicillin/streptomycin, 50 ng/mL mouse EGF, 0.5×B-27, 1 mM A8301 and 10 mM Y-27632] was added to the well. The medium was replaced once every 2 to 3 days. For passaging, 1 mg/mL collagenase/dispase was added to the medium, followed by incubation for 1 hour at 37° C. to digest the Matrigel. Subsequently, organoids were centrifuged at 1,500 rpm for 3 minutes, washed with PBS, and then spun down. Then, 0.05% trypsin-EDTA (Welgene) was added, organoids were incubated at 37° C. for 5 minutes, followed by mechanical grinding into small cells by pipetting. The organoids were passaged in a 1:3 or 1:4 ratio every 1 to 2 weeks.
To generate patient-derived tumor organoids with stroma, human tumor organoids were cultured for 10 days, and mixed with stromal components containing patient-derived CAFs and HULECs at concentrations of 5×10^4 cells/μL and 4×10^3 cells/μL, respectively, in Matrigel. And then, 5 μL drops of tumor organoids with stroma were cultured in an organoid medium in a spinning bioreactor for 7 days. […]

[5] = system: 3D bioprinted patient-derived bladder tumor organoids; assay: Tumor growth of 3D bioprinted patient-derived bladder tumor organoids treated with SAG or FK506; type: cell-based, human
Experimental: Tumor cells derived from patient-derived bladder tumor organoids were embedded in 40 μL Matrigel at a density of 5×10^5 cells/mL, and cultured in an organoid culture medium for 10 days. To prepare a bio-ink mixture for the reconstitution of tumor organoids with stroma by 3D bioprinting, 6 wells containing the embedded tumor organoids were treated with 0.5 mg/mL of a collagenase/dispase solution at 37° C. for 30 minutes, washed and centrifuged. The collected organoids were resuspended in 1 mL Matrigel (Growth Factor Reduced) containing patient-derived CAFs and HULECs at 4×10^7 cells/mL and 4×10^6 cells/mL, respectively. The reconstituted bio-ink was put into a sterilized 10 mL syringe with a 20-gauge needle, and stored on ice for less than 5 minutes before printing. A jet-type 3D printer (in vivo, Rokit, Korea) was used to reconstitute tumor organoids with stroma as described above. A G-code based script was written by Creator K software (Rokit, Korea) to print a 5×6 array of 10 μL drops. Each drop was dispensed on a parafilm at 8-mm intervals by extrusion. […]

[6] = system: BBN-induced mouse bladder tumor organoids; assay: Growth of BBN-induced mouse bladder tumor organoids treated with SAG or FK506; type: cell-based; details: reconstituted mouse tumor organoids with stroma

Row | SMILES | proliferation of epithelial cells and stromal cells [1] | proliferation of epithelial cells and stromal cells [2] | tumor cell apoptosis response ([3]; reconstituted with tumor stroma) | tumor cell apoptosis ([3]; without tumor stroma) | growth of reconstituted tumor organoids of basal subtypes ([4]; basal P-2 and P-3, in the presence of tumor stroma) | response of basal subtype tumor organoids ([4]; basal subtype, without tumor stroma) | response of reconstituted luminal tumor organoids ([4]; reconstituted luminal tumor organoids) | tumor growth ([5]; bioprinted basal, only in the presence of stroma) | tumor growth ([5]; bioprinted, luminal P-1 tumor, regardless of tumor stroma) | tumor growth [6]
1 | CS(=O)(=O)c1ccc(C(=O)Nc2ccc(Cl)c(-c3ccccn3)c2)c(Cl)c1 [Vismodegib] | decreases; also recorded: reduces | significant decrease | – | – | – | – | – | – | – | –
2 | N.N.[Cl][Pt][Cl] [cisplatin] | – | – | significantly reduced | increased | – | – | – | – | – | –
3 | CNC1CCC(N(Cc2cccc(-c3ccncc3)c2)C(=O)c2sc3ccccc3c2Cl)CC1 (stereo not drawn) [SAG] | increases | significant increase | – | – | significantly reduced | do not respond | do not respond | significantly inhibited | does not exhibit a significant change | inhibited
